According to ChEMBL document CHEMBL1146077, “Synthesis and evaluation of heteroaryl-substituted dihydronaphthalenes and indenes: potent and selective inhibitors of aldosterone synthase (CYP11B2) for the treatment of congestive heart failure and myocardial fibrosis” (J Med Chem, 2006):
pIC50: −log10 of the molar value.

What was measured:
[1] = target: T1, Cytochrome P450 11B2, mitochondrial (Homo sapiens, UniProt P19099); experiment: Inhibition of human CYP11B2 expressed in V79 11B2 cells
T1 sequence (P19099 whole entry): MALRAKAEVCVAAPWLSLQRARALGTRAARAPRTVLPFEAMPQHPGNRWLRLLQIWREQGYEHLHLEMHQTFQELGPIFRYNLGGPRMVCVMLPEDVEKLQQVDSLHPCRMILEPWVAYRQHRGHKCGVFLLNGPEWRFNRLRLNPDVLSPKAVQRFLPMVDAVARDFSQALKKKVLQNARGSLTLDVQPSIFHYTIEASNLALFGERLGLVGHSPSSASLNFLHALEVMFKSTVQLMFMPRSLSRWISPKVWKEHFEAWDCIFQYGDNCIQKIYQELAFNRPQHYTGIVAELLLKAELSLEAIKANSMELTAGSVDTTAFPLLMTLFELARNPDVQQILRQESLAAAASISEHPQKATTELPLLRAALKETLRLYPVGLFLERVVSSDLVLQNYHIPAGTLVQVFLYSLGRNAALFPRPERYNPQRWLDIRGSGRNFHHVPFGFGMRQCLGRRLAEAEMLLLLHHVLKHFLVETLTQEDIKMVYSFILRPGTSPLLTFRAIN

[2] = target: T2, Cytochrome P450 11B1, mitochondrial (Homo sapiens, UniProt P15538); experiment: Inhibition of human CYP11B1 expressed in V79 11B1 cells
T2 sequence (P15538 whole entry): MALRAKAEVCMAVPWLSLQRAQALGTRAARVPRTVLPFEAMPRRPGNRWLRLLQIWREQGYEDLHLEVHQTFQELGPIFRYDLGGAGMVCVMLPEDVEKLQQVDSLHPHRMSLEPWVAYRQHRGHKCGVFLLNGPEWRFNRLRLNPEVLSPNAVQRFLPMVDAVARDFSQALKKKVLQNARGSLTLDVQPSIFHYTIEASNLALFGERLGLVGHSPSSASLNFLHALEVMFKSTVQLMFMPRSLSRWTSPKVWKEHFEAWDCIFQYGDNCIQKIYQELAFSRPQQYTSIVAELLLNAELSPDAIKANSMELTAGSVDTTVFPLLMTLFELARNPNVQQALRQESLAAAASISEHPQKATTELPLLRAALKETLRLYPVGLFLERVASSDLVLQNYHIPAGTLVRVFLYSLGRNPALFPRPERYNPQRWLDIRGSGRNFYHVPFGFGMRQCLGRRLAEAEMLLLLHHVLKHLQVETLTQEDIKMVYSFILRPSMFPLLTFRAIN

[3] = target: T1, Cytochrome P450 11B2, mitochondrial; experiment: Inhibition of human CYP11B2 expressed in Schizosaccharomyces pombe at 500 nM
[4] = Permeability in Caco-2 cell; settings: human
[5] = Half life in rat liver microsome; type: ADME; settings: liver microsomes

| Compound | pIC50 [1] | pIC50 [2] | inhibition at 0.5 µM [3] [%] | Papp [4] [×10⁻⁶ cm/s] | half-life [5] [h] |
| --- | --- | --- | --- | --- | --- |
| CCC1CC(c2cccnc2)=Cc2ccccc21 (stereo not given) | 6.75 | 5.79 | 20 | – | – |
| C(=C/c1cccnc1)/c1ccccc1 | 6.13 | 6.54 | 54 | – | – |
| COc1ccc2c(c1)C=C(c1cccnc1)CC2 | 7.35 | – | – | – | – |
| COc1ccc2c(c1)CCC(c1cccnc1)=C2 | – | – | 98 | 13.5 | 1.12 |
| COc1ccc2c(c1)CCC(n1ccnc1)=C2 | 6.39 | – | – | – | – |
| C(=C\c1cccnc1)/c1ccccc1 | – | – | 25 | – | – |
| C1=C(n2ccnc2)CCc2ccccc21 | 6.48 | – | – | – | – |
| C1=C(n2ccnc2)Cc2ccccc21 | 6.35 | – | 33 | – | – |
| COc1ccc2c(c1)CCC(c1ccncc1)=C2 | 5.55 | 5.60 | 15 | – | – |
| CC(C(=O)O)c1cccc(C(=O)c2ccccc2)c1 (stereo not given) [KETOPROFEN] | – | – | – | 25.7 | – |
| C[C@]12CC[C@H]3[C@@H](CCC4=CC(=O)CC[C@@]43C)[C@@H]1CC[C@@H]2O [TESTOSTERONE] | – | – | – | 9.4 | – |
